Tested on: genes predictive for the anti-inflammatory macrolide effect
Assay: Genes statistically predictive of Clari response: differentially expressed with Clari but not the inactive macrolides MAA or Josa (Appendix E)
Assay type: cell-based
Source text: In the case of the above-mentioned (i) related to arachidonic acid biosynthesis, specifically, methods of the embodiment involve assaying whether a test macrolide alters biosynthesis of arachidonic acid, alters the expression or activities of enzymes involved in the biosynthesis or activation of arachidonic acid (e.g., arachidonic acid CoA synthetase, delta-6 desaturase, fatty acid elongase, and delta-5 desaturase, AA-related genes in Tables 2 and 3), or alters the expression of genes identified as predictive for the anti-inflammatory macrolide effect (Appendix E). Assays in which arachidonic acid or gene expression or enzymatic activity is detected can be carried out after contacting a cell with a test macrolide. Any cell line that secretes prostaglandin or produces arachidonic acid can be used. Epithelial and macrophages lines (e.g., A549 or THP-1) are suitable for this purpose; other cell lines can be identified by carrying out assays such as those described in the specific Examples, below. Alternatively, screening assays can be carried out after adding a test macrolide to an in vitro cell system (e.g., a cellular extract or liver microsome preparation) or an in vitro enzyme assay system.

## CC[C@H]1OC(=O)[C@H](C)[C@@H](O[C@H]2C[C@@](C)(OC)[C@@H](O)[C@H](C)O2)[C@H](C)[C@@H](O[C@@H]2O[C@H](C)C[C@H](N(C)C)[C@H]2O)[C@](C)(OC)C[C@@H](C)C(=O)[C@H](C)[C@@H](O)[C@]1(C)O [clarithromycin]
SpotID 49757, MAA and Josa vs. Clari
  group mean, gene DDOST: 1.08
SpotID 49761, MAA and Josa vs. Clari
  group mean, gene BCL2L2: 1.01
SpotID 49767, MAA and Josa vs. Clari
  group mean, gene AD022: 1.12
SpotID 49767, pooled group mean
  mean group, AD022: 1.10
SpotID 49781, MAA and Josa vs. Clari
  group mean, gene P4HB: 1.10
SpotID 49787, MAA and Josa vs. Clari
  group mean, gene CYC1: 0.90
SpotID 49787, pooled group mean
  mean group, CYC1: 0.94
SpotID 49794, MAA and Josa vs. Clari
  group mean, gene BCL2L2: 1.01
SpotID 49800, pooled group mean
  mean group, AD022: 1.09
SpotID 49815, MAA and Josa vs. Clari
  group mean, gene CDKN2C: 0.90
SpotID 49820, MAA and Josa vs. Clari
  group mean, gene CYC1: 0.90
SpotID 49882, MAA and Josa vs. Clari
  group mean, gene LAMP2: 1.17
SpotID 49915, MAA and Josa vs. Clari
  group mean, gene ATP2B4: 1.03
SpotID 49915, pooled group mean
  mean group, ATP2B4: 1.06
SpotID 49922, MAA and Josa vs. Clari
  group mean, gene DHCR24: 1.27
SpotID 49930, MAA and Josa vs. Clari
  group mean, gene KIAA0169: 0.95
SpotID 49947, pooled group mean
  mean group, RFC1: 0.93
SpotID 49967, MAA and Josa vs. Clari
  group mean, gene CCNE2: 0.82
SpotID 49981, MAA and Josa vs. Clari
  group mean, gene BMP6: 1.10
SpotID 49989, MAA and Josa vs. Clari
  group mean, gene VTN: 0.90
SpotID 49990, MAA and Josa vs. Clari
  group mean, gene SRC: 1.17
SpotID 50011, MAA and Josa vs. Clari
  group mean, gene NFYC: 0.95
SpotID 50022, pooled group mean
  mean group, HIF1A: 0.93
SpotID 50049, MAA and Josa vs. Clari
  group mean, gene GNB2L1: 1.10
SpotID 50050, pooled group mean
  mean group, NDUFA2: 1.02
SpotID 50067, MAA and Josa vs. Clari
  group mean, gene MBTPS1: 1.07
SpotID 50079, MAA and Josa vs. Clari
  group mean, gene SCOP: 1.05
SpotID 50079, pooled group mean
  mean group, SCOP: 1.04
SpotID 50084, MAA and Josa vs. Clari
  group mean, gene IDI1: 1.32
SpotID 50085, MAA and Josa vs. Clari
  group mean, SpotID 50085 (gene symbol not given): 1.00
SpotID 50099, MAA and Josa vs. Clari
  group mean, gene CNOT3: 0.84
SpotID 50099, pooled group mean
  mean group, CNOT3: 0.86
SpotID 50103, MAA and Josa vs. Clari
  group mean, gene IRF5: 1.01
SpotID 50135, MAA and Josa vs. Clari
  group mean, gene RRBP1: 1.11
SpotID 50216, MAA and Josa vs. Clari
  group mean, SpotID 50216 (gene symbol not given): 1.05
SpotID 50222, MAA and Josa vs. Clari
  group mean, gene FLJ13868: 1.06
SpotID 50224, MAA and Josa vs. Clari
  group mean, gene HK2: 1.14
SpotID 50267, pooled group mean
  mean group, IL10RB: 1.08
SpotID 50284, MAA and Josa vs. Clari
  group mean, gene UQCR: 1.00
SpotID 50294, MAA and Josa vs. Clari
  group mean, gene TM7SF2: 1.29
SpotID 50302, MAA and Josa vs. Clari
  group mean, gene CDR2: 1.08
SpotID 50307, MAA and Josa vs. Clari
  group mean, gene MAX: 1.10
SpotID 50319, MAA and Josa vs. Clari
  group mean, gene BMP6: 1.15
SpotID 50332, MAA and Josa vs. Clari
  group mean, gene DAD1: 1.20
SpotID 50337, MAA and Josa vs. Clari
  group mean, gene FGFR2: 1.08
SpotID 50342, MAA and Josa vs. Clari
  group mean, gene IKKE: 1.11
SpotID 50342, pooled group mean
  mean group, IKKE: 1.08
SpotID 50349, MAA and Josa vs. Clari
  group mean, gene LOC51295: 0.78
SpotID 50349, pooled group mean
  mean group, LOC51295: 0.84
SpotID 50351, pooled group mean
  mean group, CFL1: 1.00
SpotID 50386, MAA and Josa vs. Clari
  group mean, gene TFAM: 0.91
SpotID 50399, MAA and Josa vs. Clari
  group mean, gene DGCR6L: 1.17
SpotID 50405, MAA and Josa vs. Clari
  group mean, gene CHERP: 0.87
SpotID 50412, MAA and Josa vs. Clari
  group mean, gene AGPAT1: 1.12
SpotID 50421, pooled group mean
  mean group, GOCAP1: 1.10
SpotID 50452, MAA and Josa vs. Clari
  group mean, gene SIGIRR: 1.10
SpotID 50464, MAA and Josa vs. Clari
  group mean, gene MMP15: 1.10
SpotID 50474, MAA and Josa vs. Clari
  group mean, gene CEBPA: 1.29
SpotID 50511, pooled group mean
  mean group, MGP: 0.98
SpotID 50513, MAA and Josa vs. Clari
  group mean, gene ARHC: 1.02
SpotID 50513, pooled group mean
  mean group, ARHC: 1.00
SpotID 50532, MAA and Josa vs. Clari
  group mean, gene PRKCBP1: 0.94
SpotID 50550, MAA and Josa vs. Clari
  group mean, gene PTPRT: 1.08
SpotID 50584, pooled group mean
  mean group, BN51T: 1.07
SpotID 50590, pooled group mean
  mean group, CKS2: 0.89
SpotID 50591 (gene symbol not given), pooled group mean
  mean group, SpotID 50591: 1.13
SpotID 50591, MAA and Josa vs. Clari
  group mean, SpotID 50591 (gene symbol not given): 1.17
SpotID 50601, pooled group mean
  mean group, SRP19: 1.06
SpotID 50639, MAA and Josa vs. Clari
  group mean, gene PDIR: 1.10
SpotID 50643, MAA and Josa vs. Clari
  group mean, gene PROS1: 1.11
SpotID 50645, pooled group mean
  mean group, BET1: 1.01
SpotID 50654, MAA and Josa vs. Clari
  group mean, gene COPB2: 1.12
SpotID 50659, MAA and Josa vs. Clari
  group mean, gene MAX: 1.10
SpotID 50689, MAA and Josa vs. Clari
  group mean, gene GNB5: 1.19
SpotID 50736, MAA and Josa vs. Clari
  group mean, gene PRKDC: 0.90
SpotID 50736, pooled group mean
  mean group, PRKDC: 0.92
SpotID 50738, MAA and Josa vs. Clari
  group mean, gene AD022: 1.14
SpotID 50738, pooled group mean
  mean group, AD022: 1.10
